Data reported in patent US12378193B2, “Anti-arrhythmicity agents” (The Regents of the University of California, priority 2014, dated 2025).
Entries after “also recorded” stand apart in the source; their conditions may differ.

Columns and labels:
[1] = tested on: zebrafish tremblor (tre) embryos; experiment: Cardiac performance (line-scan fractional shortening, heart rate) of tremblor embryos; format: in vivo
Experimental: (§1) Movies of GFP-labelled myl7:GFP hearts were taken at 30 frames per second. Line-scan analysis was performed along a line through the atria or the ventricles of these hearts (Nguyen et al., 2009, Drug Discovery Today: Disease Models 5). Fraction of shortening was deduced from the ratio of diastolic and systolic width and heart rate was determined by beats per minute. Cardiac parameters were analyzed in tremblor^tc318 and VDAC2^LA2256 at 2 dpf.

[2] = tested on: wild type zebrafish embryos; experiment: Cardiac performance (line-scan fractional shortening, heart rate) of wild type embryos; format: in vivo
Experimental: as §1

[3] = tested on: zebrafish tremblor (tre) embryos; experiment: Restoration of coordinated cardiac contractions in tre embryos; format: in vivo
Experimental: VDAC2 mRNA and morpholino antisense oligos (5′-[…]-3′) (Genetools) (SEQ ID NO: 9) were injected into one-cell stage embryos collected from crosses of tre^tc318 heterozygotes. Cardiac performance was analyzed by visual inspection on 1 dpf. The tre mutant embryos were identified either by observing the fibrillation phenotype at 2-3 dpf or by genotyping as previously described (Langenbacher et al., 2005).
Chemicals from a synthetic library (Castellano et al., 2007, J Am Chem Soc 129, 5843-5845; Choi et al., 2011, Development 138, 1173-1181; Cruz et al., 2011, Proc Natl Acad Sci USA 108, 6769-6774) and from Biomol International LP were screened for their ability to partially or completely restore persistent heartbeat in tre embryos. 12 embryos collected from crosses of tre^tc318 heterozygotes were raised in the presence of individual compounds at a concentration of 10 μM from 4 hpf (Choi et al., 2011). Cardiac function was analyzed by visual inspection at 1 and 2 dpf. The hearts of tre^tc318 embryos manifest a chaotic movement resembling cardiac fibrillation with intermittent contractions in rare occasion (Ebert et al., 2005; Langenbacher et al., 2005). Compounds that elicit persistent coordinated cardiac contractions were validated on large number of tre mutant embryos and NCX1h morphants (>500 embryos).

[4] = tested on: mouse embryonic stem cell-derived cardiomyocytes (mESC-CMs); experiment: Ca2+ overload-induced irregular Ca2+ transients and contractions in mESC-CMs; format: cell-based; details: 10 mM Ca2+ext + 10 μM efsevin
Experimental: The mouse E14Tg2a ESC and human H9 ESC line were cultured and differentiated as previously described (Blin et al., 2010, J Clin Invest 120, 1125-1139; Arshi et al., 2013, Sci Technol Adv Mater 2013, 025003). At day 10 of differentiation, beating mouse EBs were exposed to external solution containing 10 mM CaCl2 for 10 minutes before DMSO or efsevin (10 μM) treatment. Human EBs were differentiated for 15 days and treated with 5 mM CaCl2) for 10 minutes before DMSO or efsevin (5 μM) treatment. Images of beating EBs were acquired at a rate of 30 frames/sec and analyzed by motion-detection software. For calcium recording, the EBs were loaded with 10 μM fluo-4 AM in culture media for 30 minutes at 37° C. Line-scan analysis was performed and fluorescent signals were acquired by a Zeiss LSM510 confocal microscope.

V1/V3 DKO MEFs = experiment: Mitochondria Ca2+ uptake assay in VDAC1/VDAC3 double knockout MEFs; format: cell-based
Experimental: V1/V3 DKO MEFs were cultured as previously described (Roy et al., 2009a, EMBO Rep 10, 1341-1347). Efsevin-treated (15 μM for 30 min) or mock-treated MEFs were used for measurements of [Ca^2+]c in suspensions of permeabilized cells or imaging of [Ca^2+]m simultaneously with [Ca^2+]c in intact single cells. Permeabilization of the plasma membrane was performed by digitonin ([…]). Changes in [Ca^2+] in the cytoplasmic buffer upon IP3 (7.5 μM) addition in the presence or absence of ruthenium red (3 μM) was measured by fura2 in a fluorometer (Csordas et al., 2006, J Cell Biol 174, 915-921; Roy et al., 2009b, Mol Cell 33, 377-388). To avoid endoplasmic reticulum Ca^2+ uptake 2 μM thapsigargin was added before IP3. For imaging of [Ca^2+]m and [Ca^2+]c, MEFs were co-transfected with plasmids encoding polycistronic zebrafish VDAC2 with mCherry and mitochondria-targeted inverse pericam for 40 hours. Cells were sorted to enrich the transfected cells and attached to glass coverslips. In the final 10 min, of the efsevin or mock-treatment, the cells were also loaded with fura2AM (2.5μ[…]) and subsequently transferred to the microscope stage. Stimulation with 1 μM ATP was carried out in a norminally Ca^2+ free buffer. […]

[5] = tested on: murine ventricular cardiomyocytes; experiment: Ca2+ imaging (transients, sparks, waves) in isolated cardiomyocytes; format: cell-based
Experimental: Murine ventricular cardiomyocytes were isolated as previously described (Reuter et al., 2004, J Physiol 554, 779-789). Cells were loaded with 5 μM fluo-4 AM in external solution containing: 138.2 mM NaCl, 4.6 mM KCl, 1.2 mM MgCl, 15 mM glucose, 20 mM HEPES for 1 hr and imaged in external solution supplemented with 2, 5 or 10 mM CaCl2). For the recording of Ca^2+ sparks and transients, the external solution contained 2 mM CaCl2. For Ca^2+ transients, cells were field stimulated at 0.5 Hz with a 5 ms pulse at a voltage of 20% above contraction threshold. For all measurements, efsevin was added 2 hours prior to the actual experiment. Images were recorded on a Zeiss LSM 5 Pascal confocal microscope. Data analysis was carried out using the Zeiss LSM Image Browser and ImageJ with the SparkMaster plugin (Picht et al., 2007, Am J Physiol Cell Physiol 293, C1073-1081). Cells were visually inspected prior to and after each recording. Only those recordings from healthy looking cells with distinct borders, uniform striations and no membrane blebs or granularity were included in the analysis.

[6] = paced at 0.5 Hz, % of vehicle-treated

## CCOC(=O)C1=CCN(S(=O)(=O)c2ccc(C)cc2)C1c1ccccc1 (stereo not shown) [efsevin]
[1]; efsevin-treated tre embryos
  heart rate: 46±2 beats per minute (bpm)
[1]; efsevin-treated tre embryos, 2 dpf, % of wild-type heart rate
  heart rate restored, relative to wild-type/controls: approximately 40%
[1]; tre + efsevin, 48 hpf
  Atrial FS: 33±2%
  Ventricular FS: 35±3%
[2]; efsevin-treated wild-type embryo, 2 dpf
  cardiac performance of wild-type embryos: did not affect cardiac performance
[2]; efsevin-treated wild-type embryos
  heart rate: 123±3 bpm
[2]; wild type + efsevin, 48 hpf
  Atrial FS: 35±2%
  Ventricular FS: 39±1%
[3]; efsevin treated tre embryos
  embryos with coordinated cardiac contractions: 71.2±8.8%
[3]; efsevin treated tre embryos, VDAC1/2 knocked down simultaneously
  embryos with coordinated contractions: 30.3±6.3%
[3]; efsevin treated tre embryos, morpholino knockdown of VDAC1 (MO^VDAC1)
  embryos with coordinated contractions: 46.9±10.7%
[3]; efsevin treated tre embryos, morpholino knockdown of VDAC2 (MO^VDAC2)
  embryos with coordinated contractions: 45.3±7.4%
[3]; tremblor embryos
  restoration of rhythmic contractions in tremblor embryos: restored rhythmic contractions in the majority of tremblor embryos
[4]
  rhythmic Ca2+ transients and contractions under Ca2+ overload: restored rhythmic Ca2+ transients and cardiac contractions; also recorded: restores regular Ca^2+ transients
V1/V3 DKO MEFs; intact V1/V3 DKO MEFs, stimulation with ATP
  transfer of Ca2+ released from intracellular stores into mitochondria: accelerated the transfer of Ca^2+
V1/V3 DKO MEFs; permeabilized V1/V3DKO MEFs, efsevin 15 μM for 30 min, 7.5 μM IP3
  Ca2+ transferred into mitochondria during IP3-induced Ca2+ release: increased the amount of Ca^2+ transferred into mitochondria
[5]; 1 μM efsevin
  spontaneous Ca2+ waves spanning more than half of the entire cell: approximately half
[5]; 10 μM efsevin
  spontaneous Ca2+ waves spanning more than half of the entire cell: further reduced
[5]; 25 μM efsevin
  spontaneous Ca2+ waves spanning more than half of the entire cell: almost entirely blocked
[5]; % of vehicle-treated
  decay phase of the single spark: 82.5±2.1%
  maximum spark amplitude: 101.6±2.5%
  total duration of the spark: 85.7±2%
  total width of the spark: 89.5±1.4%
[5]; efsevin compared to vehicle-treated
  Ca2+ spark frequency: 101.1±7.7%
[5]; [6]
  Ca2+ transient rate of decay: 82.8±4%
  Ca2+ transient time to peak: 95±3.9%
[5]; paced at 0.5 Hz, efsevin-treated as % of vehicle-treated
  Ca2+ transient amplitude: 98.6±4.5%
[5]; sparks, % of vehicle-treated
  Ca2+ release flux: 98.7±2.8%
